{"source": "patent US11583529B2", "about": "“Treatment of inflammatory disorders” (Aldeyra Therapeutics, Inc., priority 2017, dated 2023)", "key": {"[1]": {"test_system": "dextran sulfate sodium (DSS)-induced acute ulcerative colitis (UC)", "test": "7-Day DSS-induced acute ulcerative colitis model", "format": "in vivo, female Swiss Webster mice", "conditions": "vs PO vehicle"}, "[2]": {"test_system": "rat model of endotoxin induced uveitis", "test": "Rat model of endotoxin-induced uveitis (EIU), topical or intravitreal treatment", "format": "in vivo, female Lewis rats", "conditions": "for overall ophthalmic examination score: vs control (BSS) topical", "protocol": "An in vivo study was conducted to assess the efficacy of intravitreal administration of compound I-22 in a rat model of endotoxin induced uveitis, one of the most appropriate models for the study of NIU (Smith et al., 1998) (Toxikon Study 16-04078-N1). Ocular inflammation was induced in female Lewis rats (n=10/group) by a single foot pad injection of LPS (100 μL) (Herbort et al., 1988, Graefe's Arch Clin Exp Ophthalmol. 226:553-558). Compound I-22 (5 mg/mL) was administered intravitreally into each eye (25 μg/eye), or topically to both eyes at 1, 3, 7, 10, and 17 hours post-LPS injection, within one hour of LPS administration. Balanced salt solution (BSS) served as a vehicle control. Retinal exams were performed prior to study start and six and 24 hours following LPS administration and scored using a Combined Draize and McDonald Shadduck scoring system, based on assessments of: retinal vasculopathy and retinal hemorrhage, exudate, and detachment.\nEndotoxin-induced uveitis was created by a single injection of lipopolysaccharide (LPS; 100 μL) into one hind footpad. Ten (10) female Lewis rats per group received control (balanced salt solution, BSS) or test article (compound I-22) topically to both eyes at 1, 3, 7, 10, and 17 hours post-LPS injection. At each dosing time point, two drops (5 μL each, separated by approximately two minutes, for a total of 10 μL/eye/dose) were instilled into each eye of the animals. Ten female Lewis rats per group received control (BSS) or compound I-22 by a single intravitreal injection (IVT) in each eye at one hour post-LPS injection. Each eye received 5 μL of vehicle or test article.\nAnimals were anesthetized with isoflurane 1-3.5% for ophthalmic examinations. Both eyes of each animal were evaluated pre-dose using slit-lamp biomicroscopy, and an indirect ophthalmoscope or a surgical microscope, according to the Combined Draize and McDonald-Shadduck Scoring System, and the Ocular Posterior Segment Scoring Scale. All pupils were dilated with 1% tropicamide ophthalmic solution before ocular examination. Only rats showing no signs of eye irritation, ocular defects or preexisting corneal injury were used in the study.\nOphthalmic examinations were performed on both eyes of each animal approximately six and 24 hours following LPS administration, using slit-lamp biomicroscopy and a surgical microscope or via indirect ophthalmoscopy. Pupils were dilated with 1% Tropicamide Ophthalmic Solution before ophthalmic examinations.\nQuantitative, continuous data from this study were analyzed using one-way ANOVA. Alternative or additional statistical methods were used as necessary.\nIn the same study, the efficacy of compound 1-5 was compared to that of compound 1-22. Compound 1-5 was topically administered topically to the eye at hours 1, 3, 7, 10, and 17, after LPS induction, or by a single intravitreal (IVT) injection one hour after LPS induction (n=10 per group), as was compound I-22. Ocular exams were performed 6 and 24 hours after LPS injection. Anterior segments were scored using a combined Draize and McDonald-Shadduck scoring system, and posterior segments were scored using 0 to 1 (vitreous, optic disc, retinal vasculature) and 0 to 4 (retinal and choroidal hemorrhage, exudation, and detachment) scales. Statistical significance from vehicle control was determined by ANOVA, followed by Tukey's post hoc test."}, "[3]": {"conditions": "200 mg/kg PO BID, Days 0 through 6"}, "[4]": {"conditions": "200 mg/kg PO BID, Days −3 through 6"}, "[5]": {"conditions": "intravitreal administration, vs vehicles"}}, "note": "Entries after “also recorded” stand apart in the source; their conditions may differ."}
{"smiles": "CC(C)(O)c1cc2oc(-c3ccccc3)nc2cc1N", "note": "[Compound I-22]", "values": [{"measurement": "Body weights", "setting": "[1]; 200 mg/kg PO BID (Groups 5, 6, 7, 8, 9, and 10)", "value": "did not differ significantly"}, {"measurement": "Colon lengths, increase in the direction of normal", "setting": "[1]; [3]", "value": 41, "unit": "%"}, {"measurement": "PMN percentages in the proximal colon", "setting": "[1]; [3]", "value": "significantly increased"}, {"measurement": "distal colon edema, reduction", "setting": "[1]; [3]", "value": 78, "unit": "%"}, {"measurement": "distal colon hyperplasia, reduction", "setting": "[1]; [3]", "value": 86, "unit": "%"}, {"measurement": "distal colon mucosal thickness, reduction", "setting": "[1]; [3]", "value": 66, "unit": "%"}, {"measurement": "full colon edema, reduction", "setting": "[1]; [3]", "value": 62, "unit": "%"}, {"measurement": "proximal colon edema, reduction", "setting": "[1]; [3]", "value": 43, "unit": "%"}, {"measurement": "full colon edema, reduction", "setting": "[1]; [4]", "value": 48, "unit": "%"}, {"measurement": "proximal colon edema, reduction", "setting": "[1]; [4]", "value": 60, "unit": "%"}, {"measurement": "proximal colon mucosal thickness, reduction", "setting": "[1]; [4]", "value": 58, "unit": "%"}, {"measurement": "DAI stool consistency scores", "setting": "[1]; Day 2, 200 mg/kg PO BID, Days 0 through 6", "value": "significantly reduced"}, {"measurement": "ocular exam scores", "setting": "[2]; IVT, vs vehicle", "value": "significantly improved"}, {"measurement": "sums of the mean retinal examination scores", "setting": "[2]; IVT, vs vehicle controls (FIG. 2)", "value": "significantly reduced"}, {"measurement": "Total ocular inflammation", "setting": "[2]; [5]", "value": "lower"}, {"measurement": "anterior chamber inflammation", "setting": "[2]; [5]", "value": "lower"}, {"measurement": "retina-choroid inflammation", "setting": "[2]; [5]", "value": "lower"}, {"measurement": "signs of inflammation in the rat EIU model", "setting": "[2]; overall", "value": "reduced"}, {"measurement": "response in the EIU model", "setting": "[2]; overall, I-22 compared with I-5", "value": "slightly more positive response"}, {"measurement": "ophthalmic examination scores", "setting": "[2]; single IVT injection (25 μg/eye), approximately six and 24 hours post LPS, vs control IVT", "value": "significantly lower"}, {"measurement": "ocular exam scores", "setting": "[2]; topical (TO), 6 hours and 24 hours, vs vehicle", "value": "significantly improved"}, {"measurement": "Total ocular inflammation score", "setting": "[2]; topical (TO), vs vehicle", "value": "lower"}, {"measurement": "anterior chamber inflammation score", "setting": "[2]; topical (TO), vs vehicle", "value": "lower"}, {"measurement": "retina-choroid inflammation score", "setting": "[2]; topical (TO), vs vehicle", "value": "lower"}, {"measurement": "overall ophthalmic examination score", "setting": "[2]; topical at 1, 3, 7, 10, 17 h post-LPS, approximately six hours post LPS", "value": "significantly lower; also recorded: statistically lower"}, {"measurement": "overall ophthalmic examination score", "setting": "[2]; topical, approximately 24 hours post LPS", "value": "significantly lower"}]}
